Here are results for 17 compounds from patent US8791131B2, “Imidazo[1,5]naphthyridine compounds, their pharmaceutical use and compositions” (Pfizer Inc., priority 2008, dated 2014).

pKi: −log10 of the molar value. Where two headings read alike, the source gives them in different places.

One experiment concerns the target mTOR (Homo sapiens (Human), UniProt P42345).
Experiment [1] relates to PI3-K (phosphorylation of AKT at serine 473) in BT20 cells. The experiment in a line: PI3-Kα cellular assay (phospho-AKT Ser473 ELISA in BT20 cells).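 Note: lysates read by ELISA with TMB colour at 450 nm, cells given 0.5% DMSO vehicle serve as positive control and cell-free wells as negative control, duplicate wells per concentration.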 As to conditions: Homo sapiens, BT-20, 1 h. (In general: An ELISA detects its analyte on a solid surface through an enzyme-linked reagent.)
For another experiment, the target named is PI3-Kα (Mus musculus (Mouse), UniProt P42337). The experiment can be described thus: PI3-Kα biochemical assay (in vitro kinase assay, fluorescence polarization).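 Note: Insect-cell-expressed mouse p110/p85 complex converting PI(4,5)P2, product PI(3,4,5)P3 detected by displacing TAMRA-tagged PI(3,4,5)P3 from Grip1 PH domain, lower polarization means more product, room temperature.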 Conditions: Ki calculated from IC50, [ATP]=30 uM, Km=25 uM.
Where [2] appears, read: read-out: S473 pAKT 10% FBS IC50 (μM).
Setting [3] is: read-out: S473 pAKT 0.5% FBS IC50 (μM).

Sequence of PI3-Kα (P42337 whole entry, the tested form may be a part): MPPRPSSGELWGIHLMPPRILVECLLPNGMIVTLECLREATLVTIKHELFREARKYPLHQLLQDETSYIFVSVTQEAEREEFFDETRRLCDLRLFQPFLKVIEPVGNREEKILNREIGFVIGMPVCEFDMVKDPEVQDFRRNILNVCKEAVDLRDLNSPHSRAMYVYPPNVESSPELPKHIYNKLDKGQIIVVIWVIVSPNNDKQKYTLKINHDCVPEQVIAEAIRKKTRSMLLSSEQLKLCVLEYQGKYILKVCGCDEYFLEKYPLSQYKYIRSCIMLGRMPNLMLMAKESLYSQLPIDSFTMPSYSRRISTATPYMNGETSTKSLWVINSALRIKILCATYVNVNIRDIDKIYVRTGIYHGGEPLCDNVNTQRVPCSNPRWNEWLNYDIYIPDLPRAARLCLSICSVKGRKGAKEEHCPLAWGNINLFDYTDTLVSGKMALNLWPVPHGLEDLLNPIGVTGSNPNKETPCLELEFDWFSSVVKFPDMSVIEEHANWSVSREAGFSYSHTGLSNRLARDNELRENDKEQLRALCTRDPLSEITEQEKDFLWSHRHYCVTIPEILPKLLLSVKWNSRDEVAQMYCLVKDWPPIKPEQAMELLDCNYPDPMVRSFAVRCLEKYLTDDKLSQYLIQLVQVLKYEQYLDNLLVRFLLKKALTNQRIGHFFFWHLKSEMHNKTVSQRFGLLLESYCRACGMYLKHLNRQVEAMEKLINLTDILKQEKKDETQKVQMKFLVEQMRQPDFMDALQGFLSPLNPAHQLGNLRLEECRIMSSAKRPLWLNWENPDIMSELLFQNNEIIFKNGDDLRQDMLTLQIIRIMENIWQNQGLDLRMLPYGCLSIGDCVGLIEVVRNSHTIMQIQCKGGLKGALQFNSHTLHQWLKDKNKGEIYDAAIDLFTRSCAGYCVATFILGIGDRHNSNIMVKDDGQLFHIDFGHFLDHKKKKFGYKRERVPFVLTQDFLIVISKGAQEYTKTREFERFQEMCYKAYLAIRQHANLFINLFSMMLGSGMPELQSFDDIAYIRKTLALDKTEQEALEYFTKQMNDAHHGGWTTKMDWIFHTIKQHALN
Sequence of PI3-Kα (P26450 whole entry partner, the tested form may be a part): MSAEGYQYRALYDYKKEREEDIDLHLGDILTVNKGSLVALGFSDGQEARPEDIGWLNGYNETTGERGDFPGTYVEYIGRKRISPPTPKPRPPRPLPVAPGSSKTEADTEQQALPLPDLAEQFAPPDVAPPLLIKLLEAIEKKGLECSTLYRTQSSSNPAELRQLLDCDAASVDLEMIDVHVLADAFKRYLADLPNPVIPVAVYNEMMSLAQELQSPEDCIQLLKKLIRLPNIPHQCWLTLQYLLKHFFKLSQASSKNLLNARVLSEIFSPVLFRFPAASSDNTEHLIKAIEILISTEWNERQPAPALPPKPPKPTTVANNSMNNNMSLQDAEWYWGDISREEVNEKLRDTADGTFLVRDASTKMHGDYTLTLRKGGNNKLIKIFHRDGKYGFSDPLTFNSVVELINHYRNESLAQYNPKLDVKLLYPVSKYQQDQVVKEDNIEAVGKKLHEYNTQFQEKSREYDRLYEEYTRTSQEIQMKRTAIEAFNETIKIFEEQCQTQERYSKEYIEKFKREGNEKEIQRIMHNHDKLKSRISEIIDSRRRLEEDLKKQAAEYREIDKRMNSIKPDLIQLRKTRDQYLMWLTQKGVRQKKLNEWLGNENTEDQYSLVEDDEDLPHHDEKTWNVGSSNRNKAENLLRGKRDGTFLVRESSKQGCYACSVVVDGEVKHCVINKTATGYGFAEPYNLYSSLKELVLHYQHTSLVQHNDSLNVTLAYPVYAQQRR
Sequence of mTOR (P42345 2156-2469): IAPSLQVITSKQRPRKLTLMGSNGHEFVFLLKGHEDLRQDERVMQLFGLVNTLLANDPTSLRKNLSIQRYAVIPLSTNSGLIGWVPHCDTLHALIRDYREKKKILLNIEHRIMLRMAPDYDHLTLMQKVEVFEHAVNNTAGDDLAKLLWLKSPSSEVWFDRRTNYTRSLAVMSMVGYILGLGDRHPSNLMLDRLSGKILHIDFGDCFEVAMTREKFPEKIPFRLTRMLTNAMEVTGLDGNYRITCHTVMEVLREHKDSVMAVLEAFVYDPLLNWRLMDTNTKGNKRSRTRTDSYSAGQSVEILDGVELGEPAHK

Take `CN(C)c1ccc(-c2ccc3ncc4c(c3n2)n(C2CCN(C(=O)CO)CC2)c(=O)n4C)cn1` [Compound 216, 8-[6-(dimethylamino)pyridin-3-yl]-1-(1-glycoloylpiperidin-4-yl)-3-methyl-1,3-dihydro-2H-imidazo[4,5-c][1,5]naphthyridin-2-one]: on mTOR, the negative logarithm of the Ki (pKi) (in general, the Ki on a negative log10 scale, so that one unit is a factor of ten) is 8.64. Further, in experiment [1] (setting [2]), the IC50 (commonly the concentration at which inhibition is half-maximal) worked out at 0.00623 µM. The “PI3Ka Ki” value at PI3-Kα is 0.505 nM.

The compound `COc1ncc(-c2ccc3ncc4c(c3n2)n(C2CCN(C(C)=O)CC2)c(=O)n4C)cn1` [Compound 187, 1-(1-acetylpiperidin-4-yl)-8-(2-methoxypyrimidin-5-yl)-3-methyl-1,3-dihydro-2H-imidazo[4,5-c][1,5]naphthyridin-2-one] showed a pKi at mTOR of 8.43. The IC50 in experiment [1] (setting [2]) is 0.0346 µM. Moreover, at PI3-Kα, the “PI3Ka Ki” value was 3.87 nM.

For the compound `CN(C)c1ccc(-c2ccc3ncc4c(c3n2)n(C2CCN(CC(F)(F)F)CC2)c(=O)n4C)cn1` [Compound 150, 8-[6-(dimethylamino)pyridin-3-yl]-3-methyl-1-[1-(2,2,2-trifluoroethyl)piperidin-4-yl]-1,3-dihydro-2H-imidazo[4,5-c][1,5]naphthyridin-2-one], on mTOR, the negative logarithm of the Ki (pKi) is 7.90. Further, in experiment [1] (setting [2]), the IC50 is 0.0182 µM. For the same compound, the “PI3Ka Ki” value at PI3-Kα was 8.78 nM.

`COc1ncc(-c2ccc3ncc4c(c3n2)n(C2CCN(CC(=O)N(C)C)CC2)c(=O)n4C)cn1` [Compound 163, 2-{4-[8-(2-methoxypyrimidin-5-yl)-3-methyl-2-oxo-2,3-dihydro-1H-imidazo[4,5-c][1,5]naphthyridin-1-yl]piperidin-1-yl}-N,N-dimethylacetamide]: the negative logarithm of the Ki (pKi) at mTOR is 7.74. Also, the 50% inhibitory concentration (IC50) in experiment [1] (setting [2]) turned out to be 0.037 µM. Moreover, the “PI3Ka Ki” value at PI3-Kα is 4.7 nM.

At mTOR, `Cn1cc(-c2ccc3ncc4c(c3n2)n(C2CCN(C(=O)C(C)(C)O)CC2)c(=O)n4C)cn1` [Compound 215, 1-[1-(2-hydroxy-2-methylpropanoyl)piperidin-4-yl]-3-methyl-8-(1-methyl-1H-pyrazol-4-yl)-1,3-dihydro-2H-imidazo[4,5-c][1,5]naphthyridin-2-one] showed a pKi of 7.66. For the same compound, the IC50 in experiment [1] (setting [2]) was 0.0304 µM. In addition, at PI3-Kα, the “PI3Ka Ki” value was 4.67 nM.

On mTOR, `CN(C)c1ccc(-c2ccc3ncc4[nH]c(=O)n(-c5ccc(C(C)(C)C#N)cc5)c4c3n2)cn1` [Compound 107, 2-(4-(8-(6-(dimethylamino)pyridin-3-yl)-2-oxo-2,3-dihydroimidazo[4,5-c][1,5]naphthyridin-1-yl)phenyl)-2-methylpropanenitrile] had a pKi of 8.37. The IC50 in experiment [1] (setting [3]) was determined as 0.0676 µM. Besides, at PI3-Kα, the “PI3Ka Ki” value was 3.85 nM.

As for `Cn1cc(-c2ccc3ncc4c(c3n2)n(C2CCN(CC(N)=O)CC2)c(=O)n4C)cn1` [Compound 211, 2-{4-[3-methyl-8-(1-methyl-1H-pyrazol-4-yl)-2-oxo-2,3-dihydro-1H-imidazo[4,5-c][1,5]naphthyridin-1-yl]piperidin-1-yl}acetamide], the pKi on mTOR was 8.12. The IC50 in experiment [1] (setting [2]) came to 0.232 µM. Also, the “PI3Ka Ki” value on PI3-Kα was 4.63 nM.

In the case of `COc1ncc(-c2ccc3ncc4c(c3n2)n(C2CCN(C)CC2)c(=O)n4C)cn1` [Compound 182, 8-(2-methoxypyrimidin-5-yl)-3-methyl-1-(1-methylpiperidin-4-yl)-1,3-dihydro-2H-imidazo[4,5-c][1,5]naphthyridin-2-one], the pKi at mTOR was 8.35. The 50% inhibitory concentration (IC50) in experiment [1] (setting [2]) worked out at 0.159 µM. On PI3-Kα, the “PI3Ka Ki” value was 27.5 nM.

As for `CC(C)C(=O)N1CCC(n2c(=O)n(C)c3cnc4ccc(-c5cnc6ccccc6c5)nc4c32)CC1` [Compound 125, 1-(1-isobutyrylpiperidin-4-yl)-3-methyl-8-quinolin-3-yl-1,3-dihydro-2H-imidazo[4,5-c][1,5]naphthyridin-2-one], the negative-log Ki (pKi) at mTOR was 8.31. Moreover, the IC50 in experiment [1] (setting [3]) was determined as 0.0294 µM. Besides, the “PI3Ka Ki” value at PI3-Kα was 1.06 nM.

On mTOR, `CC(=O)N1CCC(n2c(=O)n(C)c3cnc4ccc(-c5ccc(N)nc5)nc4c32)CC1` [Compound 242, 1-(1-acetylpiperidin-4-yl)-8-(6-aminopyridin-3-yl)-3-methyl-1,3-dihydro-2H-imidazo[4,5-c][1,5]naphthyridin-2-one] had a pKi of 9.52. The IC50 in experiment [1] (setting [2]) is 0.00917 µM. The “PI3Ka Ki” value on PI3-Kα is 0.252 nM.

For `CN(C)c1ccc(-c2ccc3ncc4c(c3n2)n(C2CCN(CCO)CC2)c(=O)n4C)cn1` [Compound 198, 8-[6-(dimethylamino)pyridin-3-yl]-1-[1-(2-hydroxyethyl)piperidin-4-yl]-3-methyl-1,3-dihydro-2H-imidazo[4,5-c][1,5]naphthyridin-2-one], at mTOR, the pKi is 8.45. In addition, in experiment [1] (setting [2]), the IC50 came to 0.0325 µM. For the same compound, the “PI3Ka Ki” value on PI3-Kα was 3.13 nM.

With `Cn1c(=O)n(C2CCOCC2)c2c3nc(-c4cnn(CCO)c4)ccc3ncc21` [Compound 208, 8-[1-(2-hydroxyethyl)-1H-pyrazol-4-yl]-3-methyl-1-(tetrahydro-2H-pyran-4-yl)-1,3-dihydro-2H-imidazo[4,5-c][1,5]naphthyridin-2-one], on mTOR, the pKi was 7.35. For the same compound, in experiment [1] (setting [2]), the concentration for half-maximal inhibition (IC50) turned out to be 0.579 µM. Also, at PI3-Kα, the “PI3Ka Ki” value was 24.4 nM.

For the compound `COc1ccc(-c2ccc3ncc4[nH]c(=O)n(Cc5ccccc5)c4c3n2)cn1` [Compound 130, 1-benzyl-8-(6-methoxypyridin-3-yl)-1,3-dihydro-2H-imidazo[4,5-c][1,5]naphthyridin-2-one], the negative-log Ki (pKi) at mTOR is 8.07. In addition, the half-maximal inhibitory concentration (IC50) in experiment [1] (setting [3]) amounted to 0.0245 µM. Moreover, the “PI3Ka Ki” value on PI3-Kα was 2.39 nM.

Compound `COCCn1c(=O)n(C)c2cnc3ccc(-c4ccc(OC)nc4)nc3c21` [Compound 270, 1-(2-methoxyethyl)-8-(6-methoxypyridin-3-yl)-3-methyl-1,3-dihydro-2H-imidazo[4,5-c][1,5]naphthyridin-2-one] showed a pKi at mTOR of 8.15. Also, the IC50 in experiment [1] (setting [2]) worked out at 0.207 µM. Besides, the “PI3Ka Ki” value on PI3-Kα was 13.5 nM.

For `COc1ccc(-c2ccc3ncc4[nH]c(=O)n(-c5ccc(C(C)(C)C#N)cc5)c4c3n2)cn1` [Compound 103, 2-{4-[8-(6-methoxypyridin-3-yl)-2-oxo-2,3-dihydro-1H-imidazo[4,5-c]-1,5-naphthyridin-1-yl]phenyl}-2-methylpropanenitrile], the pKi at mTOR was 8.68. Further, in experiment [1] (setting [3]), the IC50 is 0.0115 µM. Further, at PI3-Kα, the “PI3Ka Ki” value was 1.86 nM.

`Cn1c(=O)n(C2CCN(C(=O)C(C)(C)O)CC2)c2c3nc(-c4cnc5ccccc5c4)ccc3ncc21` [Compound 143, 1-[1-(2-hydroxy-2-methylpropanoyl)piperidin-4-yl]-3-methyl-8-quinolin-3-yl-1,3-dihydro-2H-imidazo[4,5-c][1,5]naphthyridin-2-one] showed a pKi on mTOR of 8.14. The concentration for half-maximal inhibition (IC50) in experiment [1] (setting [2]) was determined as 0.028 µM. The “PI3Ka Ki” value on PI3-Kα is 0.568 nM.

The compound `COC(=O)N1CCC(n2c(=O)n(C)c3cnc4ccc(-c5cnc6ccccc6c5)nc4c32)CC1` [Compound 122, methyl4-(3-methyl-2-oxo-8-quinolin-3-yl-2,3-dihydro-1H-imidazo[4,5-c][1,5]napthyridin-1-yl)piperidine-1-carboxylate] gave a pKi on mTOR of 7.91. Also, the IC50 in experiment [1] (setting [3]) was 0.00807 µM. Besides, the “PI3Ka Ki” value on PI3-Kα was 0.806 nM.
